# Experimental data from PubChem BioAssay AID1963829 (Molecular Pharmacology Branch, DTP, NCI, 2024).
# Tested on: 935938-334-R-J1-PDC complex spheroid viability
# Test: Anticancer human tumor 935938-334-R-J1-PDC patient-derived small intestine adenocarcinoma cell line growth inhibition [POLQ]
# Details: for IC50: curve of first compound; for viability, T/C: stronger effect = lower value
# How it was run: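 Patient-derived tumour cells were co-cultured with HUVEC and mesenchymal stem cells as multicellular spheroids at 37 °C. They were treated with POLQ inhibitors (novobiocin, ART-558, RP6685) alone or combined with other agents. Top concentrations were at or near clinical Cmax (otherwise 10 microM; SN-38 at 1 microM), decreasing in half-log steps.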
# [1] = second compound 0.0316 µM, first compound 0.00316 µM
# [2] = second compound 0.0316 µM, first compound 0.01 µM
# [3] = second compound 0.0316 µM, first compound 0.0316 µM
# [4] = second compound 0.0316 µM, first compound 0.1 µM
# [5] = second compound 0.0316 µM, first compound 0.316 µM
# [6] = second compound 0.0316 µM, first compound 1 µM
# [7] = second compound 0.1 µM, first compound 0.00316 µM
# [8] = second compound 0.1 µM, first compound 0.01 µM
# [9] = second compound 0.1 µM, first compound 0.0316 µM
# [10] = second compound 0.1 µM, first compound 0.1 µM
# [11] = second compound 0.1 µM, first compound 0.316 µM
# [12] = second compound 0.1 µM, first compound 1 µM
# [13] = second compound 0.316 µM, first compound 0.00316 µM
# [14] = second compound 0.316 µM, first compound 0.01 µM
# [15] = second compound 0.316 µM, first compound 0.0316 µM
# [16] = second compound 0.316 µM, first compound 0.1 µM
# [17] = second compound 0.316 µM, first compound 0.316 µM
# [18] = second compound 0.316 µM, first compound 1 µM
# [19] = second compound 1 µM, first compound 0.00316 µM
# [20] = second compound 1 µM, first compound 0.01 µM
# [21] = second compound 1 µM, first compound 0.0316 µM
# [22] = second compound 1 µM, first compound 0.1 µM
# [23] = second compound 1 µM, first compound 0.316 µM
# [24] = second compound 1 µM, first compound 1 µM
# [25] = second compound 3.16 µM, first compound 0.00316 µM
# [26] = second compound 3.16 µM, first compound 0.01 µM
# [27] = second compound 3.16 µM, first compound 0.0316 µM
# [28] = second compound 3.16 µM, first compound 0.1 µM
# [29] = second compound 3.16 µM, first compound 0.316 µM
# [30] = second compound 3.16 µM, first compound 1 µM
# [31] = second compound 10 µM, first compound 0.00316 µM
# [32] = second compound 10 µM, first compound 0.01 µM
# [33] = second compound 10 µM, first compound 0.0316 µM
# [34] = second compound 10 µM, first compound 0.1 µM
# [35] = second compound 10 µM, first compound 0.316 µM
# [36] = second compound 10 µM, first compound 1 µM
# 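Also: spheroids exposed to drugs for seven days before viability read.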
# 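For viability, T/C in this document: 100% = DMSO vehicle control wells.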
smiles,measurement,setting,value
C=CCn1c(=O)c2cnc(Nc3ccc(N4CCN(C)CC4)cc3)nc2n1-c1cccc(C(C)(C)O)n1 + Nc1ccc(C#CCN(C(=O)Cc2ncc(C(F)(F)F)cc2C(F)(F)F)c2ccc(F)cc2)nn1,IC50,second compound 0.0316 µM,534 nM
same,IC50,second compound 0.1 µM,661 nM
same,IC50,second compound 0.316 µM,592 nM
same,IC50,second compound 1 µM,273 nM
same,IC50,second compound 3.16 µM,601 nM
same,IC50,second compound 10 µM,478 nM
same,"viability, T/C",[1],90.4%
same,"viability, T/C",[2],93.5%
same,"viability, T/C",[3],73.8%
same,"viability, T/C",[4],79.8%
same,"viability, T/C",[5],77.2%
same,"viability, T/C",[6],19.1%
same,"viability, T/C",[7],76.5%
same,"viability, T/C",[8],81.3%
same,"viability, T/C",[9],92.6%
same,"viability, T/C",[10],96.6%
same,"viability, T/C",[11],89.5%
same,"viability, T/C",[12],29.1%
same,"viability, T/C",[13],85.8%
same,"viability, T/C",[14],70.4%
same,"viability, T/C",[15],72.1%
same,"viability, T/C",[16],99.6%
same,"viability, T/C",[17],77.1%
same,"viability, T/C",[18],26.2%
same,"viability, T/C",[19],80%
same,"viability, T/C",[20],105%
same,"viability, T/C",[21],82.3%
same,"viability, T/C",[22],107%
same,"viability, T/C",[23],43.6%
same,"viability, T/C",[24],25.4%
same,"viability, T/C",[25],95.9%
same,"viability, T/C",[26],79.3%
same,"viability, T/C",[27],61.8%
same,"viability, T/C",[28],85.4%
same,"viability, T/C",[29],88.7%
same,"viability, T/C",[30],24.3%
same,"viability, T/C",[31],96.7%
same,"viability, T/C",[32],82.6%
same,"viability, T/C",[33],118%
same,"viability, T/C",[34],81.3%
same,"viability, T/C",[35],65.4%
same,"viability, T/C",[36],25.2%
COc1cc2cc(C(=O)CCC(=O)O)sc2cc1OC + COC1C(OC(N)=O)C(O)C(Oc2ccc3c(O)c(NC(=O)c4ccc(O)c(CC=C(C)C)c4)c(=O)oc3c2C)OC1(C)C,IC50,second compound 0.0316 µM,> 10000 nM
same,IC50,second compound 0.1 µM,> 10000 nM
same,IC50,second compound 0.316 µM,> 10000 nM
same,IC50,second compound 1 µM,> 10000 nM
same,IC50,second compound 3.16 µM,> 10000 nM
same,IC50,second compound 10 µM,> 10000 nM
same,"viability, T/C",[3],101%
same,"viability, T/C",[4],98.3%
same,"viability, T/C",[5],113%
same,"viability, T/C",[6],83.7%
same,"viability, T/C","second compound 0.0316 µM, first compound 3.16 µM",108%
same,"viability, T/C","second compound 0.0316 µM, first compound 10 µM",110%
same,"viability, T/C",[9],103%
same,"viability, T/C",[10],118%
same,"viability, T/C",[11],97.9%
same,"viability, T/C",[12],110%
same,"viability, T/C","second compound 0.1 µM, first compound 3.16 µM",92.4%
same,"viability, T/C","second compound 0.1 µM, first compound 10 µM",135%
same,"viability, T/C",[15],128%
same,"viability, T/C",[16],131%
same,"viability, T/C",[17],109%
same,"viability, T/C",[18],98%
same,"viability, T/C","second compound 0.316 µM, first compound 3.16 µM",112%
same,"viability, T/C","second compound 0.316 µM, first compound 10 µM",105%
same,"viability, T/C",[21],99.2%
same,"viability, T/C",[22],98.3%
same,"viability, T/C",[23],90.8%
same,"viability, T/C",[24],112%
same,"viability, T/C","second compound 1 µM, first compound 3.16 µM",108%
same,"viability, T/C","second compound 1 µM, first compound 10 µM",83.1%
same,"viability, T/C",[27],106%
same,"viability, T/C",[28],96.1%
same,"viability, T/C",[29],96.9%
same,"viability, T/C",[30],101%
same,"viability, T/C","second compound 3.16 µM, first compound 3.16 µM",109%
same,"viability, T/C","second compound 3.16 µM, first compound 10 µM",95.4%
same,"viability, T/C",[33],171%
same,"viability, T/C",[34],118%
same,"viability, T/C",[35],98%
same,"viability, T/C",[36],101%
same,"viability, T/C","second compound 10 µM, first compound 3.16 µM",80.8%
same,"viability, T/C","second compound 10 µM, first compound 10 µM",109%
Cn1ncnc1[C@H]1c2n[nH]c(=O)c3cc(F)cc(c23)N[C@@H]1c1ccc(F)cc1 + Nc1ccc(C#CCN(C(=O)Cc2ncc(C(F)(F)F)cc2C(F)(F)F)c2ccc(F)cc2)nn1,IC50,second compound 0.0316 µM,> 100 nM
same,IC50,second compound 0.1 µM,> 100 nM
same,IC50,second compound 0.316 µM,> 100 nM
same,IC50,second compound 1 µM,> 100 nM
same,IC50,second compound 3.16 µM,> 100 nM
same,IC50,second compound 10 µM,> 100 nM
same,"viability, T/C","second compound 0.0316 µM, first compound 0.000316 µM",98%
same,"viability, T/C","second compound 0.0316 µM, first compound 0.001 µM",106%
same,"viability, T/C",[1],94.5%
same,"viability, T/C",[2],73.1%
same,"viability, T/C",[3],83.9%
same,"viability, T/C",[4],101%
same,"viability, T/C","second compound 0.1 µM, first compound 0.000316 µM",68%
same,"viability, T/C","second compound 0.1 µM, first compound 0.001 µM",103%
same,"viability, T/C",[7],88.4%
same,"viability, T/C",[8],97.9%
same,"viability, T/C",[9],86.5%
same,"viability, T/C",[10],92.9%
same,"viability, T/C","second compound 0.316 µM, first compound 0.000316 µM",102%
same,"viability, T/C","second compound 0.316 µM, first compound 0.001 µM",104%
same,"viability, T/C",[13],107%
same,"viability, T/C",[14],105%
same,"viability, T/C",[15],106%
same,"viability, T/C",[16],76.9%
same,"viability, T/C","second compound 1 µM, first compound 0.000316 µM",95.5%
same,"viability, T/C","second compound 1 µM, first compound 0.001 µM",85.5%
same,"viability, T/C",[19],91.9%
same,"viability, T/C",[20],79%
same,"viability, T/C",[21],96.6%
same,"viability, T/C",[22],85.1%
same,"viability, T/C","second compound 3.16 µM, first compound 0.000316 µM",69%
same,"viability, T/C","second compound 3.16 µM, first compound 0.001 µM",81.4%
same,"viability, T/C",[25],88.1%
same,"viability, T/C",[26],86.9%
same,"viability, T/C",[27],85.1%
same,"viability, T/C",[28],111%
same,"viability, T/C","second compound 10 µM, first compound 0.000316 µM",107%
same,"viability, T/C","second compound 10 µM, first compound 0.001 µM",106%
same,"viability, T/C",[31],106%
same,"viability, T/C",[32],94.3%
same,"viability, T/C",[33],99.5%
same,"viability, T/C",[34],92%
